# Measured values: US20050003007A1, “Method of sterilization of polymeric microparticles” (priority 2003, published 2005)
# System: retinitis pigmentosa
# Assay: Subconjunctival injection of tazarotene microsphere suspension into a patient suffering from retinitis pigmentosa
# Type: in vivo
# Details: tazarotene 1 mg in poly(lactide-co-glycolide) microsphere suspension, for the duration of treatment
# Experimental: A dose of tazarotene (1 mg) contained in the poly(lactide-co-glycolide) microsphere suspension of Example containing 1 is injected subconjunctivally into a patient suffering from retinitis pigmentosa.
smiles,measurement,value
CCOC(=O)c1ccc(C#Cc2ccc3c(c2)C(C)(C)CCS3)nc1 [tazarotene],vision,Maintenance of vision or a slowing of the progression of vision loss
